The values below come from patent US20090062351A1, “Benzoyl amino pyridyl carboxylic acid derivatives useful as glucokinase (glk) activators” (priority 2003, published 2009).

Series [1] in a line: Plasma protein binding by equilibrium dialysis. To be noted: rat, 37° C., pH 7.4, read-out: % free in plasma. The series is classed as in vitro ADME. As for the experimental part:
The plasma protein binding of compounds was measured using the equilibrium dialysis technique (W. Lindner et al, J. Chromatography, 1996, 677, 1-28). Compound was dialysed at a concentration of 20 μM for 18 hours at 37° C. with plasma and isotonic phosphate buffer pH 7.4 (1 ml of each in the dialysis cell). A Spectrum® 20-cell equilibrium dialyser was used together with Teflon, semi-micro dialysis cells and Spectra/Por®2 membrane discs with a molecular weight cut off 12-14000 Dalton, 47 mm (supplied by PerBio Science UK Ltd, Tattenhall, Cheshire). Plasma and buffer samples are removed following dialysis and analysed using HPLCUV/MS (high performance liquid chromatography with UV and mass spec detection) to give the % free level in plasma.

The next series concerns the target T1, glucokinase (GLK) (Homo sapiens, UniProt P35557).
T1 sequence (P35557 1-466 isoform P35557-2): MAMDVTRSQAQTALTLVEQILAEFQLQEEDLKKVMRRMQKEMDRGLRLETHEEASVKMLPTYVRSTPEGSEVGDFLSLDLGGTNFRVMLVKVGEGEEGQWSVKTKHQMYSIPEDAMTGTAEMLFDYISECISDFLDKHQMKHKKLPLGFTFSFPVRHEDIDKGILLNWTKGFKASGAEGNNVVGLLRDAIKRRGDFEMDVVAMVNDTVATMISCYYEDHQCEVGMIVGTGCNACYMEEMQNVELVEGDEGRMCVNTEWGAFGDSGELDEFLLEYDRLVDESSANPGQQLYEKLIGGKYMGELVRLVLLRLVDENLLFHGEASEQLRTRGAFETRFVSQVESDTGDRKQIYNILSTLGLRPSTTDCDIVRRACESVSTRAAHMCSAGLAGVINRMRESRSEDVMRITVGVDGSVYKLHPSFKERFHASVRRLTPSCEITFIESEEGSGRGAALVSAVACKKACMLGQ
The series can be described thus: biochemical.

A short description of series [2]: Plasma levels following oral administration to rats. The class given is in vivo. To be noted: rat, including both bound and free, normalised dose of 1 mg compound per kilogram body weight. The method, then:
Planetary Milled compounds [15 mins, 500 rpm, 5 Zirconium Balls, in a Puluerisette 7 Mill (Glen Creston Ltd, Stanmore, Middlesex, UK)] were suspended in 0.5% HPMC Tween and dosed to High Fat Fed (Research Diets, D12451, ad lib feeding 14 days) Female Alderley Park Zucker or Alderley Park Wistar rats at rate of 5 mls/kg, at doses between 0.3 and 10 mg/kg by oral gavage.
Samples of plasma were obtained either by conscious blood sampling or terminal blood sampling as follows:
Conscious blood sampling (for compound level or blood chemistry)—Intravenous blood samples were taken from tail vein using 600 μl Starstedt Multivette (EDTA) and 22 G needle at the required time point. […]
The reconstituted samples were then analysed using high performance liquid chromatography with tandem mass spectrometry detection (HPLC-MS-MS)”. […]
The concentration of test samples was determined from the ratio of the peak height of the test sample to the peak height of the internal standard. The concentration of the test sample was calculated with reference to a standard curve relating the ratio to the concentration prepared by using known concentrations of test sample added to samples of rat plasma using (3-isopropoxy-5-benzyoxy-benzoyl)amino pyridine 3-carboxylic acid as an internal standard, treated as described above.

Regarding `COC[C@H](C)Oc1cc(OCC=C2CCCC2)cc(C(=O)Nc2ccc(C(=O)O)cn2)c1` [Example 2, 6-{[(3-[(2-cyclopentylideneethyl)oxy]-5-{[(1S)-1-methyl-2-(methyloxy)ethyl]oxy}phenyl)carbonyl]amino}pyridine-3-carboxylic acid], the fraction unbound at 18 h, 20 μM in series [1] stood at 0.0042. The same molecule gave an EC50 on glucokinase (GLK) of 78 nM. Besides, the “Peak Blood levels” value in series [2] was determined as 2.2 µM.
